How the values were obtained:
[1] = cited from earlier work
HIV aspartyl protease = conditions: cited from earlier work
[2] = Transformation kinetics: slurry in solvents, PXRD; format: physicochemical; conditions: 25-30° C., 15 h
Description: The solid samples were characterized by PXRD.

[3] = Storage stability of Form A: HPLC purity
Procedure: In yet another embodiment, physical and chemical stability of Fosamprenavir calcium Form A was determined by storing the samples at 40° C./75% relative humidity (RH), at 25° C./60% RH and at 5° C. for 6 months. The material was analyzed by PXRD, water content by Karl Fischer and HPLC for final purity.

[4] = Physical stability under drying (vacuum) and 90% RH, PXRD
Procedure: The said formic acid solvate of the present invention is characterized by their X-ray powder diffraction pattern. Thus, the X-ray diffraction patterns of said polymorphs of the invention were measured on Bruker AXS D8 Discover powder X-ray diffractometer equipped with a goniometer of θ/2θ configuration, Variol monochromator and Lynx-Eye detector. The Cu-anode X-ray tube was operated at 40 kV and 30 mA. The experiments were conducted over the 2θ range of 2.0°-50.0°, 0.030° step size and 25 seconds step time.
In yet another embodiment, the physical stability of Fosamprenavir calcium Form A was determined by storing 1.0 g of sample at 50° C. and 80° C. under vacuum and at 90% relative humidity (RH). The samples are tested by PXRD after 15 hours and 72 hours. […] Transformation kinetics of Form A was studied by suspending 1 g of Form A in appropriate solvents at 25-30° C. for 15 hours. The solid samples were characterized by PXRD.

[5] = Storage stability of Form A: water content by Karl Fischer; format: physicochemical
Procedure: Water content was determined on Metrohm karl-Fischer titrator (Model: 794 Basic Titrino) using pyridine free single solution (Merck, Mumbai) with sample mass between 450-550 mg.

[6] = Storage stability of Form A: polymorph by PXRD; format: physicochemical
[7] = stored for 6 months at the stress conditions of table 1

CC(C)CN(C[C@@H](O)[C@H](Cc1ccccc1)NC(=O)O[C@H]1CCOC1)S(=O)(=O)c1ccc(N)cc1 (relative stereo) [Amprenavir, [3S-[3R*(1R*,2S*)]]-[3-[[(4-aminophenyl)sulfonyl](2-methyl-propyl)amino]-2-hydroxy-1-phenylmethyl)propyl]-tetrahydro-3-furanyl ester]
Solubility [1]: poor solubility

CC(C)CN(C[C@@H](OP(=O)([O-])[O-])[C@H](Cc1ccccc1)NC(=O)O[C@H]1CCOC1)S(=O)(=O)c1ccc(N)cc1.[Ca+2] [Fosamprenavir Calcium, Calcium (3S) tetrahydro-3-furanyl (1S,2R)-3-[[(4-aminophenyl)sulfonyl](isobutyl)amino]-1-benzyl-2-(phosphonooxy)propylcarbamate]
HIV aspartyl protease inhibitory activity (HIV aspartyl protease): has HIV aspartyl protease inhibitory activity | Solubility compared to amprenavir ([1]; pH range of the gastro-intestinal tract): increased solubility

CC(C)CN(C[C@@H](OP(=O)([O-])[O-])[C@H](Cc1ccccc1)NC(=O)O[C@H]1CCOC1)S(=O)(=O)c1ccc(N)cc1.[Ca+2] [Fosamprenavir calcium Form A, Calcium (3S) tetrahydro-3-furanyl (1S,2R)-3-[[(4-aminophenyl)sulfonyl](isobutyl)amino]-1-benzyl-2-(phosphonooxy)propylcarbamate]
Result (polymorph by PXRD) ([2]; Slurry in IPE): Form A | Result (polymorph by PXRD) ([2]; Slurry in acetone): Form A | Result (polymorph by PXRD) ([2]; Slurry in ethyl acetate): Form A | Result (polymorph by PXRD) ([2]; Slurry in n-Heptane): Form A | HPLC purity (%) ([3]; at 5° C., 1st Month): 99.85% | HPLC purity (%) ([3]; at 5° C., 2nd Month): 99.86% | HPLC purity (%) ([3]; at 5° C., 3rd Month): 99.86% | HPLC purity (%) ([3]; at 5° C., 6th Month): 99.86% | HPLC purity (%) ([3]; at 5° C., 15 days): 99.85% | HPLC purity (%) ([3]; at 5° C., Initial): 99.85% | HPLC purity (%) ([3]; at 25° C./60% RH, 1st Month): 99.85% | HPLC purity (%) ([3]; at 25° C./60% RH, 2nd Month): 99.86% | HPLC purity (%) ([3]; at 25° C./60% RH, 3rd Month): 99.87% | HPLC purity (%) ([3]; at 25° C./60% RH, 6th Month): 99.85% | HPLC purity (%) ([3]; at 25° C./60% RH, 15 days): 99.85% | HPLC purity (%) ([3]; at 25° C./60% RH, Initial): 99.85% | HPLC purity (%) ([3]; at 40° C./75% RH, 1st Month): 99.85% | HPLC purity (%) ([3]; at 40° C./75% RH, 2nd Month): 99.85% | HPLC purity (%) ([3]; at 40° C./75% RH, 3rd Month): 99.86% | HPLC purity (%) ([3]; at 40° C./75% RH, 6th Month): 99.86% | HPLC purity (%) ([3]; at 40° C./75% RH, 15 days): 99.84% | HPLC purity (%) ([3]; at 40° C./75% RH, Initial): 99.85% | Degradation on storage [3, 7]: no significant degradation | Change in polymorph ([4]; 50° C. and 80° C. under vacuum and 90% RH, after 15 hours and 72 hours): no change in polymorph | Result (polymorph by PXRD) ([4]; 90% RH, 15 h): Form A | Result (polymorph by PXRD) ([4]; 90% RH, 72 h): Form A | Result (polymorph by PXRD) ([4]; Drying at 50° C. under vacuum, 15 h): Form A | Result (polymorph by PXRD) ([4]; Drying at 50° C. under vacuum, 72 h): Form A | Result (polymorph by PXRD) ([4]; Drying at 80° C. under vacuum, 15 h): Form A | Result (polymorph by PXRD) ([4]; Drying at 80° C. under vacuum, 72 h): Form A | Physical stability ([4]; different stress conditions (Table 2)): physically stable | Water content (% w/w) ([5]; at 5° C., 1st Month): 3.5 % w/w | Water content (% w/w) ([5]; at 5° C., 2nd Month): 4.4 % w/w | Water content (% w/w) ([5]; at 5° C., 3rd Month): 4.0 % w/w | Water content (% w/w) ([5]; at 5° C., 6th Month): 3.5 % w/w | Water content (% w/w) ([5]; at 5° C., 15 days): 3.6 % w/w | Water content (% w/w) ([5]; at 5° C., Initial): 4.2 % w/w | Water content (% w/w) ([5]; at 25° C./60% RH, 1st Month): 3.6 % w/w | Water content (% w/w) ([5]; at 25° C./60% RH, 2nd Month): 3.7 % w/w | Water content (% w/w) ([5]; at 25° C./60% RH, 3rd Month): 3.9 % w/w | Water content (% w/w) ([5]; at 25° C./60% RH, 6th Month): 3.5 % w/w | Water content (% w/w) ([5]; at 25° C./60% RH, 15 days): 3.7 % w/w | Water content (% w/w) ([5]; at 25° C./60% RH, Initial): 4.2 % w/w | Water content (% w/w) ([5]; at 40° C./75% RH, 1st Month): 3.5 % w/w | Water content (% w/w) ([5]; at 40° C./75% RH, 2nd Month): 3.9 % w/w | Water content (% w/w) ([5]; at 40° C./75% RH, 3rd Month): 3.8 % w/w | Water content (% w/w) ([5]; at 40° C./75% RH, 6th Month): 3.0 % w/w | Water content (% w/w) ([5]; at 40° C./75% RH, 15 days): 3.5 % w/w | Water content (% w/w) ([5]; at 40° C./75% RH, Initial): 4.2 % w/w | Change in moisture content on storage [5, 7]: no substantial increase in moisture content | PXRD ([6]; at 5° C., 1st Month): Form A | PXRD ([6]; at 5° C., 2nd Month): Form A | PXRD ([6]; at 5° C., 3rd Month): Form A | PXRD ([6]; at 5° C., 6th Month): Form A | PXRD ([6]; at 5° C., 15 days): Form A | PXRD ([6]; at 5° C., Initial): Form A | PXRD ([6]; at 25° C./60% RH, 1st Month): Form A | PXRD ([6]; at 25° C./60% RH, 2nd Month): Form A | PXRD ([6]; at 25° C./60% RH, 3rd Month): Form A | PXRD ([6]; at 25° C./60% RH, 6th Month): Form A | PXRD ([6]; at 25° C./60% RH, 15 days): Form A | PXRD ([6]; at 25° C./60% RH, Initial): Form A | PXRD ([6]; at 40° C./75% RH, 1st Month): Form A | PXRD ([6]; at 40° C./75% RH, 2nd Month): Form A | PXRD ([6]; at 40° C./75% RH, 3rd Month): Form A | PXRD ([6]; at 40° C./75% RH, 6th Month): Form A | PXRD ([6]; at 40° C./75% RH, 15 days): Form A | PXRD ([6]; at 40° C./75% RH, Initial): Form A | Change in PXRD pattern on storage [6, 7]: no change in PXRD pattern
